As a reminder, the IC50 is the concentration at which inhibition is half-maximal.

This is an account of results in ChEMBL document CHEMBL4811267, “Structurally Diverse Diterpenoids from the Roots of Salvia deserta Based on Nine Different Skeletal Types” (J Nat Prod, 2021).

Assay [1] has as its system MCF7. In words: Cytotoxicity against human MCF7 cells assessed as reduction in cell viability after 48 hrs by MTS assay. As to conditions: MCF7, 48 h. Format: functional, cell-based. On the technique in general: Tetrazolium assays rely on reduction of a dye to a coloured formazan, in cell work by metabolically active cells.
Assay [2] concerns SW480. As to the kind of experiment: Cytotoxicity against human SW480 cells assessed as reduction in cell viability after 48 hrs by MTS assay. Format: functional, cell-based. As to conditions: SW480, 48 h.
In assay [3] the test system is BEAS-2B. In words: Cytotoxicity against human BEAS2B cells assessed as reduction in cell viability after 48 hrs by MTS assay. Format: cell-based.
The subject of assay [4] is SMMC-7721. In words: Cytotoxicity against human SMMC-7721 cells assessed as reduction in cell viability after 48 hrs by MTS assay. Type of assay: functional, cell-based. The settings on record: SMMC-7721, 48 h.
Assay [5] deals with HL-60. As to the kind of experiment: Cytotoxicity against human HL60 cells assessed as reduction in cell viability after 48 hrs by MTS assay. As to conditions: HL-60, 48 h. Type of assay: functional, cell-based.
Assay [6] concerns A549. As to the kind of experiment: Cytotoxicity against human A549 cells assessed as reduction in cell viability after 48 hrs by MTS assay. Format: functional, cell-based. The settings on record: A549, 48 h.

On to `CO[C@@H]1C2=C(C(=O)C(O)=C(C(C)C)C2=O)[C@@]2(C)CCCC(C)(C)[C@H]12`, for which the IC50 in assay [1], in assay [2], in assay [3], in assay [4], in assay [5] and in assay [6] was more than 10 µM each time.

Take `CC(C)c1cc(O)c2c(c1O)C(=O)C[C@H]1C(C)(C)CCC[C@]21C`: the half-maximal inhibitory concentration (IC50) in assay [1], in assay [2], in assay [3], in assay [4], in assay [5] and in assay [6] was more than 10 µM throughout.

As for `CC(C)c1cc2c(cc1O)C(=O)C[C@H]1C(C)(C)CCC[C@]21C`, the IC50 in assay [1], in assay [2], in assay [3], in assay [4], in assay [5] and in assay [6] was more than 10 µM each time.

For the molecule `CC(C)c1cc2c(cc1O)[C@@]1(C)CC[C@H](O)C(C)(C)[C@@H]1CC2` [HINOKIOL], the 50% inhibitory concentration (IC50) in assay [1], in assay [2], in assay [3], in assay [4], in assay [5] and in assay [6] was more than 10 µM in each case.

For the molecule `CC(C)c1cc(C(=O)O)c2c(c1O)O[C@]1(O)C(C)(C)[C@@H](O)CC[C@]21C`, the IC50 in assay [1], in assay [2], in assay [3], in assay [4], in assay [5] and in assay [6] was more than 10 µM throughout.

As to `CC(C)c1cc2c(c(O)c1O)[C@@]1(C)CCCC(C)(C)[C@@H]1CC2=O` [DEMETHYLCRYPTOJAPONOL], the IC50 in assay [1], in assay [2], in assay [3], in assay [4], in assay [5] and in assay [6] was more than 10 µM throughout.

In the case of `CC(C)C1=C(O)C(=O)C2=C(C=C3C(C)(C)CCC[C@@]32C)C1=O`, the IC50 in assay [1], in assay [2], in assay [3], in assay [4], in assay [5] and in assay [6] was more than 10 µM throughout.

Regarding `COc1c(C(C)C)cc2c(c1O)[C@@]1(C)CCCC(C)(C)[C@@H]1CC2=O` [CRYPTOJAPONOL], the half-maximal inhibitory concentration (IC50) in assay [1], in assay [2], in assay [3], in assay [4], in assay [5] and in assay [6] was more than 10 µM throughout.

In the case of `CC(C)c1c(O)c(O)c2c(c1C=O)[C@H](O)[C@H]1C(C)(C)CCC[C@]21C`, the IC50 in assay [1], in assay [2], in assay [3], in assay [4], in assay [5] and in assay [6] was more than 10 µM each time.

On to `CC(C)c1cc2c(cc1O)[C@@]1(C)CCCC(C)(C)[C@@H]1CC2=O` [SUGIOL], for which the concentration for half-maximal inhibition (IC50) in assay [1], in assay [2], in assay [3], in assay [4], in assay [5] and in assay [6] was more than 10 µM in each case.

Take `CC(C)c1cc(C=O)c2c(c1O)OC(O)[C@H]1C(C)(C)CCC[C@]21C` (some centres undefined): the IC50 in assay [1], in assay [2], in assay [3], in assay [4], in assay [5] and in assay [6] was more than 10 µM in each case.

With `CC(C)c1cc2c(cc1O)[C@@]1(C)C[C@H](O)CC(C)(C)[C@@H]1CC2`, the half-maximal inhibitory concentration (IC50) in assay [1], in assay [2], in assay [3], in assay [4], in assay [5] and in assay [6] was more than 10 µM each time.

For `CC(C)c1cc2c(c(O)c1O)[C@@]1(C)CCCC(C)(C)[C@@H]1[C@H](O)C2=O`, the IC50 in assay [1], in assay [2], in assay [3], in assay [4], in assay [5] and in assay [6] was more than 10 µM throughout.

For the molecule `CC(C)c1cc2c(c(O)c1O)[C@@]1(C)CCCC(C)(C)C1=CC2=O` [SALVINOLONE], the IC50 in assay [1], in assay [2], in assay [3], in assay [4], in assay [5] and in assay [6] was more than 10 µM each time.

For the molecule `CC(C)C1=C[C@]23CC[C@@H]4C(=CCCC4(C)C)[C@H]2CC(=O)[C@]3(O)C1=O`, the IC50 in assay [1], in assay [2], in assay [3], in assay [4], in assay [5] and in assay [6] was more than 10 µM in each case.

For the molecule `CC(C)c1c(O)c(C=O)c2c(c1O)OC(O)[C@H]1C(C)(C)CCC[C@]21C` (some centres undefined), the 50% inhibitory concentration (IC50) in assay [1], in assay [2], in assay [3], in assay [4], in assay [5] and in assay [6] was more than 10 µM in each case.

In the case of `CC(C)C1=C(O)C(=O)C2=C(C1=O)[C@H](O)[C@H]1C(C)(C)CCC[C@]21C`, the IC50 in assay [1], in assay [2], in assay [3], in assay [4], in assay [5] and in assay [6] was more than 10 µM each time.

With `CC(C)C1=C(O)C(=O)C2=C(C=C[C@H]3C(C)(C)CCC[C@]3(C)O2)C1=O`, the half-maximal inhibitory concentration (IC50) in assay [1], in assay [2], in assay [3], in assay [4], in assay [5] and in assay [6] was more than 10 µM in each case.

On to `CC(C)c1cc2c(c(O)c1O)[C@@]1(C)CCCC(C)(C)C1=C(O)C2=O` [14-DEOXYCOLEON U], for which the concentration for half-maximal inhibition (IC50) was 5.6 µM in assay [1]; more than 10 µM in assay [2]; more than 10 µM in assay [3]; 9.2 µM in assay [4]; 6.2 µM in assay [5]; 8.4 µM in assay [6].

Turning to `COc1c(O)c2c(c(C=O)c1C(C)C)[C@H](O)[C@H]1C(C)(C)CCC[C@]21C`, the half-maximal inhibitory concentration (IC50) in assay [1], in assay [2], in assay [3], in assay [4], in assay [5] and in assay [6] was more than 10 µM throughout.

In the case of `Cc1ccc2cc(C(C)C)c(O)c3c2c1C(=O)CCC(C)(C)O3`, the IC50 in assay [1], in assay [2], in assay [3], in assay [4], in assay [5] and in assay [6] was more than 10 µM in each case.

For `CC(C)c1cc2c(cc1O)C=C[C@H]1C(C)(C)CCC[C@]21C`, the half-maximal inhibitory concentration (IC50) in assay [1], in assay [2], in assay [3], in assay [4], in assay [5] and in assay [6] was more than 10 µM in each case.

Turning to `CC(C)c1cc(C(=O)O)c2c(c1O)O[C@]1(O)[C@@](C)(CO)CCC[C@]21C`, the IC50 in assay [1], in assay [2], in assay [3], in assay [4], in assay [5] and in assay [6] was more than 10 µM throughout.

In the case of `CC(C)c1cc2c(c(O)c1O)[C@@]1(C)CCC[C@](C)(CO)C1=C(O)C2=O`, the half-inhibitory concentration (IC50) in assay [1], in assay [2], in assay [3], in assay [4], in assay [5] and in assay [6] was more than 10 µM in each case.
